How the values were obtained:
[1] = tested on: mesenteric arteries of mice with chronic heart failure; assay: Flow-mediated dilatation of isolated mesenteric arteries from mice with chronic heart failure (coronary artery occlusion model); format: cell-based, C57BL6 mice; settings: CHF mouse arteries, in-vitro incubation 30 min, preconstriction by phenylephrine
Excerpt: Experimentally, flow-induced release of NO in small peripheral arteries (i.e. arteries that contribute to the increased resistance in heart failure) may be assessed in vitro in isolated perfused, pressurized arteries such as small (<300 μm diameter) mesenteric or hindquarter arteries.
Chronic heart failure is induced in C57BL6 mice (n=12) by coronary ligation according to the model developed in rats by Varin et al,1999, Circulation, 99, 2951-2957.
Mice are anesthetized, ventilated and a thoracotomy (incision of the pleural cavity) is performed. The left main coronary artery is ligated close to its origin. This procedure leads to the development of an infarct involving around 40% of the left ventricle. Post-infarction mortality in this mouse model is around 40-50%.
The development of heart failure is assessed by echocardiography in the closed chest state 7 days and 2 months after coronary ligation. Sham-operated (normal) mice are subjected to the same protocol except that the artery is not be ligated. […]
(§1) Flow-mediated vasodilatation (FMD), i.e. changes in vessel diameter in response to stepwise increases in intra-luminal flow (0-200 μl/min) is evaluated after preconstriction by phenylephrine (incubated 2min at 10^-5 M) after a contraction plateau is reached, at baseline and after incubation with a compound of the invention: […]

[2] = tested on: mesenteric arteries of normal mice; assay: Flow-mediated dilatation of isolated mesenteric arteries from normal (sham-operated) mice; format: cell-based, C57BL6 mice; settings: 10^-5 M, compared with the roughly abolished response in CHF arteries (FIG. 1)
Experimental: The flow-mediated dilatation response in a normal mouse (open circles) is compared to the flow-mediated dilatation response of mesenteric arteries in either normal mouse subjected to an inhibitor of NO synthesis (left, black circles) or in a mouse wherein chronic heart failure (CHF) has been induced as described in Example 1 (right, black circles).
The development of heart failure is assessed by echocardiography in the closed chest state 7 days and 2 months after coronary ligation. Sham-operated (normal) mice are subjected to the same protocol except that the artery is not be ligated. Six mice are present in each group and mice that survived myocardial infarction are further used in the study.
After two months, the mice is anesthetized and subjected to laparotomy (incision into the abdominal cavity).
A portion of the mesenteric artery (diameter 250-350 μm) is carefully isolated under a dissection microscope, and a 1.5to 2.0-mm length segment is cannulated on both ends, transferred to an arteriograph (Living Systems Instrumentation) and pressurized to 60 mm Hg.
as §1

| SMILES | flow-mediated dilatation (% dilatation) restoration ([1]; 10^-5 M in Krebs buffer, flow 0-200 μl/min (FIG. 2 left)) | flow-mediated dilatation (% dilatation) restoration ([1]; 10^-6 M in Krebs buffer, flow 0-200 μl/min (FIG. 2 right)) | inhibition of the flow-mediated dilatation response [2] |
| --- | --- | --- | --- |
| CCCCCCc1ccc(C#Cc2ccc(CN(Cc3ccc(C(F)(F)F)cc3)C(=O)C(=O)O)cc2)cc1 [Compound 1, {{4-[(4-hexylphenyl)ethynyl]benzyl}[4-(trifluoromethyl)benzyl]amino}(oxo)acetic acid] | restored to the normal level | restored to the normal level | – |
| N=C(NCCC[C@H](N)C(=O)O)N[N+](=O)[O-] [NG-nitro-L-arginine] | – | – | inhibition of the dilatation response is similar |

— patent US20070185118A1, “Use of methylene amide derivatives in cardiovascular disorders” (APPLIED RESEARCH SYSTEMS ARS HOLDING N.V., priority 2004, published 2007)
